# Reference: publication PMC5688156, “The natural product carolacton inhibits folate-dependent C1 metabolism by targeting FolD/MTHFD” (Nature Communications, 2017)
# Where two headings read alike, the source gives them in different places.
# Biological target: T1, hsMTHFD1_DC (Homo sapiens, UniProt P11586)
# T1 construct: hsMTHFD1 DC301; His-tag (TEV-cleavable, vector pHis-TEV); made in house; host or cells: E. coli BL21 (DE3)
# T1 sequence (P11586 2-291 limits assumed): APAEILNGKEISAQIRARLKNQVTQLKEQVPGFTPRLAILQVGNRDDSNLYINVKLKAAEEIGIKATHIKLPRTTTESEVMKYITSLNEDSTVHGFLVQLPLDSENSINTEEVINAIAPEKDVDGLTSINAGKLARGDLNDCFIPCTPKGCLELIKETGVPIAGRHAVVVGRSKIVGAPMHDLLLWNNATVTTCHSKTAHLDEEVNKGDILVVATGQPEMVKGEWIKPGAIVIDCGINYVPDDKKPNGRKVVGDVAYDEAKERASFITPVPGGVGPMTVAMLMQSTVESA
# Assay: hsMTHFD1_DC dehydrogenase (DH) enzyme assay
# Format: biochemical
# Details: hsMTHFD1 DC301
# Description: (6R,S)-5,10-Methylene-5,6,7,8-tetrahydrofolic acid ((6R,S)-5,10-CH2-THF) calcium salt and (6R,S)-5,10-Methenyl-5,6,7,8-tetrahydrofolic acid ((6R,S)-5,10-CH=THF) chloride were purchased from Schircks Laboratories (Bauma, Switzerland) and used as substrates for FolD dehydrogenase and cyclohydrolase enzyme assays, respectively. Only the R-isomer, which accounts for 50% of (6R,S)-5,10-CH2-THF and (6R,S)-5,10-CH=THF, respectively, is used by the enzyme. (6R,S)-5,10-CH2-THF was dissolved in N2-spargeled basic buffer (50 mM Tris-HCl (pH 8.0), 100 mM β-mercaptoethanol) as described by Varshney et al.[25]. (6R,S)-5,10-CH=THF was dissolved in DMSO as a 100 mM stock solution.
# Because FolD is a bifunctional enzyme, dehydrogenase and cyclohydrolase activities were determined for FolD enzyme kinetics, respectively. The dehydrogenase activity of FolD was assayed for its substrate 5,10-CH2-THF and cofactor NADP^+ (in the case of MTHFD2, NAD^+ was used as the cofactor) based on monitoring the formation of 5,10-CH=THF, while the cyclohydrolase activity of FolD was determined for its substrate 5,10-CH=THF by monitoring the hydrolysis of […]. The enzyme kinetics for the dehydrogenase activity of all FolDs except hsMTHFD1_DC were determined at 30 °C in 50 mM Tris-HCl (pH 7.5), 30 mM β-mercaptoethanol. The hsMTHFD1_DC dehydrogenase activity was measured in 25 mM MOPS (pH 7.3), 30 mM β-mercaptoethanol at 30 °C. To measure the enzyme kinetic constants for 5,10-CH2-THF, for example in the case of ecFolD, the NADP concentration was fixed at 1 mM and the concentration of 5,10-CH2-THF varied from 5 to 1500 μM (R-isomer). Similarly, to measure the kinetic constants of ecFolD for NADP^+, the concentration of 5,10-CH2-THF (R-isomer) was fixed at 1 mM and the concentration of NADP^+ varied from 10 to 1500 μM. For different FolDs, the varied concentration range of substrates could be different. […] To monitor the formation of 5,10-CH=THF, the absorbance of the reaction mixture was monitored at 350 nm in micro UV cuvettes (BRAND, Essex, Connecticut, USA). The concentration of 5,10-CH=THF produced in the reaction was determined using an extinction co-efficient of 0.0249 μM^−1 cm^−1. […] The consumption of 5,10-CH=THF was measured by recording the absorbance of the reactions at 355 nm using the TECAN Infinite 200 PRO equipped with a monochromator. […] The inhibition constants (K i) of carolacton on FolD were determined by measuring the apparent K m when adding certain amounts of carolacton to the enzyme reactions. […] To compare the inhibition effects of carolacton between the different FolDs, the half maximal inhibitory concentration (IC50) of carolacton on the same amount of enzyme was determined for FolDs involved in this study. […]
smiles,measurement,setting,value
CO[C@H](CC(=O)O)[C@@H](C)C(=O)[C@H](C)/C=C(\C)[C@H]1OC(=O)[C@H](O)[C@H](O)/C=C/[C@H](C)CCC[C@@H]1C [carolacton],IC50,"10 nM enzyme, read-out: IC50, carolacton inhibition on DH activity",38 nM
same,IC80,"10 nM enzyme, read-out: IC80, carolacton inhibition on DH activity",77.6 nM
same,Ki,"vs 5,10-CH2-THF, read-out: Ki (5,10-CH2-THF), carolacton inhibition on DH activity",5.93 nM
same,Ki,"vs NADP+, read-out: Ki (NADP+), carolacton inhibition on DH activity",58.7 nM
